Among the data in patent publication US9700509B2, “Solutions of lipophilic substances, especially medicinal solutions” (UNIVERSITÄT REGENSBURG, priority 2008, dated 2017) are appearance of solution values, retold here.

The nature of the data set: Dissolution in polyethylene glycol 400 (appearance of solution, microscope). It counts as physicochemical. Particulars: 20 mg phospholipid DHGPC in 1 ml polyethylene glycol 400, 21° C. From the text:
Polyethylene glycol 400 served as solvent. […] This was confirmed under a microscope.
Microscope images confirmed this.

Turning to `CCCCCCC(=O)OC[C@H](COP(=O)([O-])OCC[N+](C)(C)C)OC(=O)CCCCCC` [DHGPC, diheptanoyl glycerophosphocholine], the appearance of solution result was “clear solution”.
